Data taken from patent publication US9249453B2, “Method for identifying a malodor inhibitor” (Kao Corporation, priority 2011, dated 2016).

Key:
Assay type in all cases: cell-based
[1] = target: T1, OR8H1 (Homo sapiens, UniProt Q8NGG4); test: Luciferase reporter assay: suppression of the skatole response of OR8H1 expressed in HEK293 cells; details: test substance 100 μM mixed with 300 μM skatole, HEK293 cells expressing OR8H1; for inhibition at 100 µM: 4 h, read-out: Inhibition rate 8H1
T1 construct: expressed in transfected cells; host or cells: HEK293
T1 sequence (Q8NGG4 1-311): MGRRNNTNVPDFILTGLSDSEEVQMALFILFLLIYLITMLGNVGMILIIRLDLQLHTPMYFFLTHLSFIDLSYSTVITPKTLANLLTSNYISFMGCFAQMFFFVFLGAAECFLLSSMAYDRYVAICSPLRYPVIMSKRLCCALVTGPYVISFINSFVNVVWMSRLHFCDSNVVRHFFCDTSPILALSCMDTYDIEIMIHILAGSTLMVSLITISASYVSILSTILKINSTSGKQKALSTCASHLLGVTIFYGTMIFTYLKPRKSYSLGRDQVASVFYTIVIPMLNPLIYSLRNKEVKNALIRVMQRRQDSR
Description: (§1) A reaction solution having a composition shown in Table 1 was prepared on a clean bench, and left to stand for 15 minutes. The solution was dispensed to each well of a 96-well plate (BD). Subsequently, HEK293 cells (100 μL, 3×10^5 cells/cm^2) were seeded in each well and cultured for 24 hours in an incubator at 37° C. and under 5% CO2 conditions.
(§2) The olfactory receptor expressed in HEK293 cells activates adenylate cyclase with the aid of Gαs present in cells, to thereby increase intracellular cAMP level. In this study, odorant response was measured by a luciferase reporter gene assay which monitored the intracellular cAMP level as the luminescence value derived from a firefly luciferase gene (fluc2P-CRE-hygro). Also, a Renilla luciferase gene fused downstream of a CMV promoter (hRluc-CMV) was also transfected to HEK293 cells as an internal standard to correct errors in gene transfer efficiency and number of cells.
(§3) Cell culturing was performed for four hours in a CO2-incubator, whereby the luciferase gene sufficiently expressed in the cells. Luciferase activity was measured by means of a Dual-Glo™ luciferase assay system (promega) according to an instruction manual thereof. The luminescence value derived from firefly luciferase induced by odorant stimulation was divided by the luminescence value of cells which were not stimulated with odorants. The thus-obtained—called “fold increase”—was employed as an index for response intensity.
(§4) The response inhibition rate of a test substance was calculated as follows. Firstly, luminescence value derived from firefly luciferase induced by stimulation with skatole (X), and luminescence value in cells which expressed the same receptor but were not stimulated with skatole (Y) were determined. By subtracting Y from X, the receptor activity by stimulation with skatole alone (X−Y) was determined. Similarly, the luminescence value induced by stimulation with a mixture of skatole and a test substance (Z) was determined. Through subtracting Y (the luminescence value in cells which expressed the same receptor but were not stimulated with skatole) from Z, the receptor activity (Z−Y) by stimulation with a mixture of skatole and the test substance was obtained. From the thus-obtained receptor activity by stimulation with skatole alone (X−Y) and the receptor activity in the presence of a test material (Z−Y), the response inhibition rate of the test substance was calculated by the following equation: Inhibition rate (%)={1−(Z−Y)/(X−Y)}×100.
(§5) In each case, multiple independent experiments were performed in duplicate, and the average of each experiment was used.

[2] = target: T2, OR5K1 (Homo sapiens, UniProt Q8NHB7); test: Luciferase reporter assay: suppression of the skatole response of OR5K1 expressed in HEK293 cells; details: test substance 100 μM mixed with 300 μM skatole, HEK293 cells expressing OR5K1; for inhibition at 100 µM: 4 h, read-out: Inhibition rate 5K1
T2 construct: expressed in transfected cells; host or cells: HEK293
T2 sequence (Q8NHB7 1-308): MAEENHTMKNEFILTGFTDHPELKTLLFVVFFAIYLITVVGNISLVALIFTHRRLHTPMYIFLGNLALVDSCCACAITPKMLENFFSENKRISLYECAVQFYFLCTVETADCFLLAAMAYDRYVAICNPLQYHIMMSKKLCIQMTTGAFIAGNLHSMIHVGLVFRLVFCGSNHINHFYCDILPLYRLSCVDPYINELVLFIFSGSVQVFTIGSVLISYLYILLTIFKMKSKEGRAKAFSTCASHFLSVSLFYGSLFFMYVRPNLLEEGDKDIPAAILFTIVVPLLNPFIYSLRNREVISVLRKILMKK
Description: as §1, §2, §3, §4, §5

[3] = target: T3, OR5P3 (Homo sapiens, UniProt Q8WZ94); test: Luciferase reporter assay: suppression of the skatole response of OR5P3 expressed in HEK293 cells; details: test substance 100 μM mixed with 300 μM skatole, HEK293 cells expressing OR5P3
T3 construct: expressed in transfected cells; host or cells: HEK293
T3 sequence (Q8WZ94 1-311): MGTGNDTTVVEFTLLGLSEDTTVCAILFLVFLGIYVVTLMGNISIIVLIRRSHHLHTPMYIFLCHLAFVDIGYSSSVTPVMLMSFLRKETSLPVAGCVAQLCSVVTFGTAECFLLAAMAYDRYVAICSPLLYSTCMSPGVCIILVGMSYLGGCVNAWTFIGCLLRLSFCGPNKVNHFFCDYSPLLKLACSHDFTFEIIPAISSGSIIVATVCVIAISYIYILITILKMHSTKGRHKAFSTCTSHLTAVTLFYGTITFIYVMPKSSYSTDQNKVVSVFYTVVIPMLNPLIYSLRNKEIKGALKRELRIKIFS
Description: as §1, §2, §3, §4, §5

[4] = target: T4, OR2W1 (Homo sapiens, UniProt Q9Y3N9); test: Luciferase reporter assay: suppression of the skatole response of OR2W1 expressed in HEK293 cells; details: test substance 100 μM mixed with 300 μM skatole, HEK293 cells expressing OR2W1; for inhibition at 100 µM: 4 h, read-out: Inhibition rate 2W1
T4 construct: expressed in transfected cells; host or cells: HEK293
T4 sequence (Q9Y3N9 1-320): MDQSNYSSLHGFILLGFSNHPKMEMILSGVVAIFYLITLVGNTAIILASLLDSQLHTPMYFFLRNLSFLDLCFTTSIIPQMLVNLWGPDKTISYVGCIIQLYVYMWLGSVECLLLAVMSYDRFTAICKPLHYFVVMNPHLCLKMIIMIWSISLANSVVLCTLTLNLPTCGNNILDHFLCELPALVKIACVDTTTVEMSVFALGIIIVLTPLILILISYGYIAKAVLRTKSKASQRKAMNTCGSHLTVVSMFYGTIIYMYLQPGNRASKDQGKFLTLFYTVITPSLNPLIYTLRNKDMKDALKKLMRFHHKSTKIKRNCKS
Description: as §1, §2, §3, §4, §5

Compound	Inhibition rate 8H1 [1]	Inhibition rate 5K1 [2]	Inhibition rate 5P3 [3]	Inhibition rate 2W1 [4]	inhibition at 100 µM [1]	inhibition at 100 µM [2]	inhibition at 100 µM [4]
C=CCOC(=O)CCC1CCCCC1 [Allyl cyclohexylpropionate]	C (C >20%)	C (C >20%)	–	C (C >20%)	–	–	–
CCC(O)COC1CCCCC1C(C)(C)C (centres unmarked) [Ambercore, 1-(2-tert-Butylcyclohexyloxy)-2-butanol]	–	–	B (B >50%)	–	> 80%	50 to 80%	> 80%
CC1(C)CCCC2(C)C1CCC1(C)OCCC12 (centres unmarked) [Ambroxane, Dodecahydro-3a,6,6,9a-tetramethyl-naphtho[2.1-b]furan]	A (A >80%)	C (C >20%)	B (B >50%)	A (A >80%)	–	–	–
CC1(C)CCCC2=C1CC(C=O)CC2 (centres unmarked) [Cyclemone A, 1,2,3,4,5,6,7,8-octahydro-8,8-dimethyl-2-naphthaldehyde]	–	–	C (C >20%)	–	20 to 50%	20 to 50%	50 to 80%
C=CCCC(=O)C1=CCCC(C)(C)C1 [Dinascone, 1-(5,5-Dimethyl-cyclohexen-1-yl)-4-penten-1-one]	–	–	B (B >50%)	–	> 80%	50 to 80%	> 80%
CC1=CCC(C=CC(C)C(C)O)C1(C)C (centres unmarked) [Ebanol, 3-Methyl-5-(2,2,3-trimethyl-3-cyclopenten-1-yl)-4-penten-2-ol]	–	–	A (A >80%)	–	50 to 80%	> 80%	50 to 80%
CCOC(=O)C1OC1(C)c1ccccc1 (centres unmarked) [Ethyl-2,3-epoxy-3-methyl-3-phenyl propionate]	B (B >50%)	C (C >20%)	C (C >20%)	–	–	–	–
CC(C)c1cccc(C(C)CC=O)c1 (stereo not drawn) [Florhydral, β-Methyl-3-(1-methylethyl)benzenepropanal]	–	–	B (B >50%)	–	50 to 80%	50 to 80%	50 to 80%
CCOC(=O)OC1CCCCC1C(C)(C)C (centres unmarked) [Flormat, Ethyl 2-tert-butyl cyclohexyl carbonate]	A (A >80%)	B (B >50%)	A (A >80%)	A (A >80%)	–	–	–
CC1=CC(C)C(C=O)CC1 (centres unmarked) [Triplal, Dimethyl-3-cyclohexene-1-carboxaldehyde]	C (C >20%)	–	C (C >20%)	C (C >20%)	–	–	–
C=C(C)C1CC=C(C=O)CC1 (centres unmarked) [perillaldehyde, 4-(1-Methylethenyl)-1-cyclohexene-1-carboxyaldehyde]	–	–	–	–	50 to 80%	20 to 50%	< 20%
CC(=O)C=CC1=C(C)CCCC1(C)C [β-ionone, 4-(2,6,6-Trimethyi-1-cyclohexen-1-yl)-3-buten-2-one]	A (A >80%)	B (B >50%)	–	C (C >20%)	–	–	–

Now from value to compound:

Inhibition rate 8H1 [1]	Inhibition rate 5K1 [2]	Inhibition rate 5P3 [3]	Inhibition rate 2W1 [4]	inhibition at 100 µM [1]	inhibition at 100 µM [2]	inhibition at 100 µM [4]	Compound
C (C >20%)	C (C >20%)	C (C >20%)	–	–	–	–	2,6-Dimethyl-2-octanol/3,7-Dimethyl-3-octanol [tetrahydromugol]
C (C >20%)	–	C (C >20%)	C (C >20%)	–	–	–	4(3)-(4-Methyl-3-pentenyl)-3-cyclohexenylmethyl acetate [myraldyl acetate]
–	–	C (C >20%)	–	> 80%	> 80%	50 to 80%	CC1COCc2cc3c(cc21)C(C)(C)C(C)C3(C)C (centres unmarked) [Galaxolide, 1,3,4,6,7,8-Hexahydro-4,6,6,7,8,8-hexamethylcyclopenta-γ-2-benzopyran]
–	–	–	–	20 to 50%	< 20%	50 to 80%	C=CC(C)=CCC(C)(C)C(=NO)C(C)C [Labienoxime, 2,4,4,7-Tetramethyl-6,8-nonadiene-3-one oxime]
–	–	C (C >20%)	–	20 to 50%	< 20%	20 to 50%	CC1C/C=C/CCCCCCCCCC(=O)C1 (centres unmarked) [Muscenone delta, (5E)-3-methylcyclopentadec-5-en-1-one]
–	–	–	–	< 20%	50 to 80%	> 80%	CC(C)(C)c1ccc(CCC=O)cc1 [bourgeonal, 3-(4-tert-butylphenyl)propionaldehyde]
–	C (C >20%)	B (B >50%)	B (B >50%)	–	–	–	CC/C=C\CCOC(=O)c1ccccc1O [cis-3-hexynlyl salicylate, 3(Z)-Hexenyl 2-hydroxy benzoate]
–	–	–	–	20 to 50%	20 to 50%	20 to 50%	CC(=O)OCCC(C)CCC=C(C)C (centres unmarked) [citronellyl acetate, 3,7-Dimethyl-6-octen-1-yl acetate]
B (B >50%)	C (C >20%)	C (C >20%)	–	–	–	–	CC(=O)OC(C)(C)Cc1ccccc1 [dimethylbenzylcarbinyl acetate, α,α-Dimethyl phenylethyl acetate]
–	–	C (C >20%)	B (B >50%)	–	–	–	CCCCCCOC(=O)c1ccccc1O [hexyl salicylate, n-Hexyl-o-hydroxy benzoate]
–	–	–	–	20 to 50%	< 20%	> 80%	CC(C)=CCCC1=CCC(C=O)CC1 (centres unmarked) [myrac aldehyde, 4-(4-Methyl-3-penten-1-yl)-3-cyclohexene-1-carboxaldehyde]
–	–	–	–	50 to 80%	< 20%	20 to 50%	CC(C)Cc1ccc(CC(C)C=O)cc1 (stereo not drawn) [suzaral, α-Methyl-4-(2-methylpropyl)-benzenepropanal]
B (B >50%)	C (C >20%)	C (C >20%)	–	–	–	–	Hexahydro-4,7-methanoinden-5(6)-yl acetate [tricyclodecenyl acetate]
